Values quoted from earlier work, collected in PMC10184130.

Settings: likely due to the basic amidine moiety; cited from earlier work

CSc1sc(C(=N)N)cc1S(=O)(=O)c1cccc(-c2c(C)cccc2NC(=O)CCCS(C)(=O)=O)c1 [Compound 1]
in vivo pharmacokinetics (PK) properties: poor
